The assay deals with S. aureus, P. aeruginosa, c. albicans, E. coli and/or A. niger. In words: abbreviated preservative efficacy test against Ph Eur-A (EP-A) and Ph Eur-B (EP-B) criteria. Conditions: 20 ppm BAK alone in ophthalmic solution. In kind it is cell-based. As to the method:
Each of these formulations is tested by performing an abbreviated preservative efficacy test using test organisms S. aureus, P. aeruginosa, c. albicans, E. coli and/or A. niger. The formulations are tested against United States Preservative Efficacy Test (USP), European Efficacy Test-A (EP-A) and European Efficacy Test-B (EP-B) criteria as indicated. Ten (10) ml of each formulation is challenged with approximately 10^5 cfu/ml of test organism. At appropriate time intervals, the amount of bacterial and fungal survivors are assayed using Dey Engley broth (DE) as the neutralizer media. DE, along with filtration, is sufficient at neutralizing the antimicrobial agents in the compositions. One (1) ml of each sample is diluted into nine (9) ml of DE. One (1) ml of the 1:10 dilution is filtered through a 0.45 µm filter and washed with 100 ml of a saline/polysorbate 80 solution. After washing the filtrate a second time with 100 ml of saline/polysorbate 80 solution, the filtrate is placed onto a TSA plate for bacteria and SAB for fungi.

Turning to benzalkonium chloride [BAK], the “Ph Eur-B & A criteria (pass/fail)” value is “failed”.

Values taken from US20110250294A1, “COMBINATIONS OF PRESERVATIVE COMPOSITIONS FOR OPHTHALMIC FORMULATIONS” (ALLERGAN, INC., priority 2010, published 2011).
